The values below are quoted from earlier work in patent US11020390B2, “Bioequivalent pharmaceutical composition of vortioxetine hydrobromide” (UNICHEM LABORATORIES LTD, priority 2017, dated 2021).

In the case of `Br.Cc1ccc(Sc2ccccc2N2CCNCC2)c(C)c1` [vortioxetine hydrobromide, 1-[2-(2,4-Dimethyl-phenylsulfanyl)-phenyl]-piperazine, hydrobromide], the solubility in water result is reported as “relatively poor”.
